Numbers after ± are expanded uncertainties.
Conditions: Liquid; for mass density: 298.15 K, 101.33 kPa, Vibrating tube method; for vapor or sublimation pressure: Ebulliometric method (Recirculating still)

Row | SMILES | mass density [kg/m3] | vapor or sublimation pressure (336.61 K) [kPa] | vapor or sublimation pressure (344.29 K) [kPa] | vapor or sublimation pressure (350.5 K) [kPa] | vapor or sublimation pressure (355.83 K) [kPa] | vapor or sublimation pressure (360.49 K) [kPa] | vapor or sublimation pressure (363 K) [kPa]
1 | CCOC(=O)C(C)O (racemic) [DL-ethyl lactate] | 1028.08 ± 0.1 |  |  |  |  |  | 
2 | COC(=O)OC [dimethyl carbonate] | 1063.29 ± 0.08 | 40 ± 3.5 | 53.33 ± 3.8 | 66.66 ± 4.6 | 79.99 ± 5.3 | 93.32 ± 5.9 | 101.3 ± 6.4
3 | CO [methanol] | 786.56 ± 0.12 |  |  |  |  |  | 
